From US6821980B1, “Substituted 5-benzyl-2,4-diaminopyrimidines” (Basilea Pharmaceutica AG, priority 1999, dated 2004)
pIC50: −log10 of the molar value. Converted amounts (≈) assume the structure as drawn. Like-named read-outs stand apart in the source and are kept apart here.

What was measured:
[1] = tested on: Streptococcus pneumoniae 1/1; assay: MIC against Streptococcus pneumoniae 1/1; format: cell-based; conditions: Streptococcus pneumoniae 1/1, trimethoprim- and penicillin-resistant, serotype 6, clinical isolate; for MIC: read-out: MIC Sp1/1
[2] = tested on: Staphylococcus aureus 101; assay: MIC against Staphylococcus aureus 101; format: cell-based; conditions: Staphylococcus aureus 101, MRSA- and trimethoprim-resistant, clinical isolate; for MIC: read-out: MIC Sa101
[3] = biological target: T1, purified DHFR of strain Sp1/1 of Streptococcus pneumoniae (Streptococcus pneumoniae serotype 4, UniProt Q54801); format: biochemical; conditions: IC50 against purified DHFR of strain Sp1/1
T1 sequence (Q54801 1-168 I100L): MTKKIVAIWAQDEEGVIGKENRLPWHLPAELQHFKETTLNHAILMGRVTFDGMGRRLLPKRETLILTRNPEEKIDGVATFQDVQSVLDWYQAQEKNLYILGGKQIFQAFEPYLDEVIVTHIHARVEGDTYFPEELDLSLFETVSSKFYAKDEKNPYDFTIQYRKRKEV

[4] = biological target: purified DHFR of strain 157/4696 of Staphylococcus aureus (Staphylococcus aureus, UniProt P13955); assay: biochemical
Chain of purified DHFR of strain 157/4696 of Staphylococcus aureus (P13955 whole entry): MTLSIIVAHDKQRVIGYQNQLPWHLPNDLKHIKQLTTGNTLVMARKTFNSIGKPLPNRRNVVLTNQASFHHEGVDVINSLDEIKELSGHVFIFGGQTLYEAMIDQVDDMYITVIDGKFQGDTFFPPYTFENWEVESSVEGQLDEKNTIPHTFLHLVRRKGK

| Compound | MIC ([1]; Table 2) | MIC ([2]; Table 2) | pIC50 ([3]; Table 2) | pIC50 [4] | MIC Sp1/1 ([1]; Table 1) | MIC Sa101 ([2]; Table 1) | pIC50 ([3]; Table 1) | pIC50 ([4]; Table 1, IC50 against purified DHFR of strain 157/4696 (highly trimethoprim-resistant; clinical isolate), read-out: DHFR Sa1) | MIC ([1]; Table 1) | MIC ([2]; Table 1) |
| --- | --- | --- | --- | --- | --- | --- | --- | --- | --- | --- |
| CCOc1cc(Cc2cnc(N)nc2N)cc(OCCc2ccccn2)c1-c1cccc(N)c1 [Example 07-g, 5-[3′-Amino-6-ethoxy-2-(2-pyridin-2-yl-ethoxy)-biphenyl-4-ylmethyl]-pyrimidine-2,4-diamine] | 8 µg/mL (≈ 17.5 µM) | 8 µg/mL (≈ 17.5 µM) | 7.52 | 6.19 | – | – | – | – | – | – |
| CCOc1cc(Cc2cnc(N)nc2N)cc(OCC2(C)CC2)c1-c1ccc(O)cc1 [Example 08-o, 4′-(2,4-Diamino-pyrimidin-5-ylmethyl)-6′-ethoxy-2′-[(1-methyl-cyclopropyl)-methoxy]-biphenyl-4-ol] | 2 µg/mL (≈ 4.76 µM) | 4 µg/mL (≈ 9.51 µM) | 7.29 | 5.85 | – | – | – | – | – | – |
| CCOc1cc(Cc2cnc(N)nc2N)cc(OCC)c1-c1ccc(CN2CCCC2)cc1 [Example 04-y, 5-(2,6-Diethoxy-4′-pyrrolidin-1-ylmethyl-biphenyl-4-ylmethyl)-pyrimidine-2,4-diamine] | 8 µg/mL (≈ 17.9 µM) | 8 µg/mL (≈ 17.9 µM) | 7.04 | 6.05 | – | – | – | – | – | – |
| CCOc1cc(Cc2cnc(N)nc2N)cc(OS(=O)(=O)C(C)CC)c1-c1ccc(N)c(F)c1 (centres unmarked) [Example 35-b, Butane-2-sulphonic acid 4′-amino-4-(2,4-diamino-pyrimidin-5-ylmethyl)-6-ethoxy-3′-fluoro-biphenyl-2-yl ester] | 0.5 µg/mL (≈ 1.02 µM) | 2 µg/mL (≈ 4.09 µM) | 8.05 | 6.89 | – | – | – | – | – | – |
| CCOc1cc(Cc2cnc(N)nc2N)cc(OCC2CC2)c1-c1ccc(O)cc1 [Example 08-h, 2′-Cyclopropylmethoxy-4′-(2,4-diamino-pyrimidin-5-ylmethyl)-6′-ethoxy-biphenyl-4-ol] | 2 µg/mL (≈ 4.92 µM) | 4 µg/mL (≈ 9.84 µM) | 7.96 | 5.92 | – | – | – | – | – | – |
| CCOc1cc(Cc2cnc(N)nc2N)cc(OCC)c1-c1ccc(OC)cc1 [Example 05-b, 5-(2,6-Diethoxy-4′-methoxy-biphenyl-4-ylmethyl)-pyrimidine-2,4-diamine] | 4 µg/mL (≈ 10.1 µM) | 16 µg/mL (≈ 40.6 µM) | 7.40 | 5.82 | – | – | – | – | – | – |
| CCOc1cc(Cc2cnc(N)nc2N)cc(OS(=O)(=O)C2CC2)c1-c1ccc(C)c(N)c1 [Example 34-f, Cyclopropanesulphonic acid 3′-amino-4-(2,4-diamino-pyrimidin-5-ylmethyl)-6-ethoxy-4′-methyl-biphenyl-2-yl ester] | 1 µg/mL (≈ 2.13 µM) | 2 µg/mL (≈ 4.26 µM) | 8.02 | 7.01 | – | – | – | – | – | – |
| CCOc1cc(Cc2cnc(N)nc2N)cc(OCC)c1-c1ccc(NS(C)(=O)=O)cc1 [Example 04-b, N-[4′-(2,4-Diamino-pyrimidin-5-ylmethyl)-2′,6′-diethoxy-biphenyl-4-yl]-methanesulphonamide] | 2 µg/mL (≈ 4.37 µM) | 8 µg/mL (≈ 17.5 µM) | 7.44 | 5.77 | – | – | – | – | – | – |
| CCOc1cc(Cc2cnc(N)nc2N)cc(OS(=O)(=O)N(C)CC)c1-c1ccc(CN2CCOCC2)c(N)c1 [Example 30-c, N-Ethyl-N-methyl-sulphamic acid 3′-amino-4-(2,4-diamino-pyrimidin-5-ylmethyl)-6-ethoxy-4′-morpholin-4-ylmethyl-biphenyl-2-yl ester] | 2 µg/mL (≈ 3.5 µM) | 2 µg/mL (≈ 3.5 µM) | 7.80 | 6.85 | – | – | – | – | – | – |
| CCOc1cc(Cc2cnc(N)nc2N)cc(OCC)c1-c1ccco1 [Example 02-o, 5-(3,5-Diethoxy-4-furan-2-yl-benzyl)-pyrimidine-2,4-diamine] | 4 µg/mL (≈ 11.3 µM) | 4 µg/mL (≈ 11.3 µM) | 7.00 | 5.66 | – | – | – | – | – | – |
| CCOc1cc(Cc2cnc(N)nc2N)cc(OC2CCCC2)c1-c1ccc(O)cc1 [Example 08-j, 2′-Cyclopentylox-4′-(2,4-diamino-pyrimidin-5-ylmethyl)-6′-ethoxy-biphenyl-4-ol] | 2 µg/mL (≈ 4.76 µM) | 2 µg/mL (≈ 4.76 µM) | 7.59 | 5.80 | – | – | – | – | – | – |
| CCOc1cc(Cc2cnc(N)nc2N)cc(OCC)c1-c1ccc(N2CC(COC)OC2=O)cc1 (racemic) [Example 04-s, (RS)-3-[4′-(2,4-Diamino-pyrimidin-5-ylmethyl)-2′,6′-diethoxy-biphenyl-4-yl]-5-methoxymethyl-oxazolidin-2-one] | 4 µg/mL (≈ 8.1 µM) | 8 µg/mL (≈ 16.2 µM) | 7.21 | 5.72 | – | – | – | – | – | – |
| CCOc1cc(Cc2cnc(N)nc2N)cc(OC2CCC(OC)C2)c1-c1ccc(O)cc1 (centres unmarked) [Example 08-r, 5-[6-Ethoxy-2-(3-methoxy-cyclopentyloxy)-4′-hydroxy-biphenyl-4-ylmethyl]-pyrimidine-2,4-diamine] | 8 µg/mL (≈ 17.8 µM) | 8 µg/mL (≈ 17.8 µM) | 7.43 | 5.92 | – | – | – | – | – | – |
| CCCOc1cc(Cc2cnc(N)nc2N)cc(OCC)c1-c1ccc(OC)cc1 [Example 09-e, 5-(6-Ethoxy-4′-methoxy-2-propoxy-biphenyl-4-ylmethyl)-pyrimidine-2,4-diamine] | 4 µg/mL (≈ 9.79 µM) | 4 µg/mL (≈ 9.79 µM) | 7.35 | 6.00 | – | – | – | – | – | – |
| CCOc1cc(Cc2cnc(N)nc2N)cc(OS(=O)(=O)N(C)C2CC2)c1-c1ccc(NC)cc1 [Example 26-d, N-Cyclopropyl-N-methyl-sulphamic acid 4-(2,4-diamino-pyrimidin-5-ylmethyl)-6-ethoxy-4′-methylamino-biphenyl-2-yl ester] | 1 µg/mL (≈ 2.01 µM) | 1 µg/mL (≈ 2.01 µM) | 8.29 | 6.85 | – | – | – | – | – | – |
| CCOc1cc(Cc2cnc(N)nc2N)cc(OS(=O)(=O)C(C)CC)c1-c1ccc(NCCO)cc1 (centres unmarked) [Example 35-f, Butane-2-sulphonic acid 4-(2,4-diamino-pyrimidin-5-ylmethyl)-6-ethoxy-4′-(2-hydroxy-ethylamino)-biphenyl-2-yl ester] | 0.5 µg/mL (≈ 0.97 µM) | 4 µg/mL (≈ 7.76 µM) | 8.07 | 6.92 | – | – | – | – | – | – |
| CCOc1cc(Cc2cnc(N)nc2N)cc(OS(C)(=O)=O)c1-c1ccc(O)cc1 [Example 15-a, Methanesulphonic acid 4-(2,4-diamino-pyrimidin-5-ylmethyl)-6-ethoxy-4′-hydroxy-biphenyl-2-yl ester] | 4 µg/mL (≈ 9.29 µM) | 8 µg/mL (≈ 18.6 µM) | 7.49 | 6.26 | – | – | – | – | – | – |
| CCOc1cc(Cc2cnc(N)nc2N)cc(OCCC2CCOCC2)c1-c1ccc(O)cc1 [Example 08-e, 4′-(2,4-Diamino-pyrimidin-5-ylmethyl)-6′-ethoxy-2′-[2-(tetrahydrogyran-4-yl)-ethoxy]-biphenyl-4-ol] | 1 µg/mL (≈ 2.15 µM) | 8 µg/mL (≈ 17.2 µM) | 8.25 | 6.02 | – | – | – | – | – | – |
| CCOc1cc(Cc2cnc(N)nc2N)cc(OS(C)(=O)=O)c1-c1ccc2c(c1)OCO2 [Example 17-a, Methanesulphonic acid 2-benzof[1,3]dioxol-5-yl-5-(2,4-diamino-Ryrimidin-5-ylmethyl)-3-ethoxy-phenyl ester] | 2 µg/mL (≈ 4.36 µM) | 4 µg/mL (≈ 8.72 µM) | 7.42 | 6.22 | – | – | – | – | – | – |
| CCOc1cc(Cc2cnc(N)nc2N)cc(OCC2CC2)c1-c1ccc2c(c1)OCO2 [Example 10-b, 5-(4-Benzo[1.3]dioxol-5-yl-3-cyclopropylmethoxy-5-ethoxy-benzyl)-pyrimidine-2,4-diamine] | 2 µg/mL (≈ 4.6 µM) | 8 µg/mL (≈ 18.4 µM) | 7.40 | 5.62 | – | – | – | – | – | – |
| CCOc1cc(Cc2cnc(N)nc2N)cc(OCC2CC2)c1-c1ccc(OCC#N)cc1 [Example 59-, [2′-Cycloproplmethoxy-4′-(2,4-diamino-pyrimidin-5-ylmethyl)-6′-ethoxy-biphenyl-4-yloxy]-acetonitrile] | 2 µg/mL (≈ 4.49 µM) | 8 µg/mL (≈ 18 µM) | 7.74 | 5.74 | – | – | – | – | – | – |
| CCOc1cc(Cc2cnc(N)nc2N)cc(OS(=O)(=O)N(C)CC)c1-c1ccc(N)c(F)c1 [Example 28-b, N-Ethyl-N-methyl-sulphamic acid 4′-amino-4-(2,4-diamino-pyrimidin-5-ylmethyl)-6-ethoxy-3′-fluoro-biphenyl-2-yl ester] | 1 µg/mL (≈ 2.04 µM) | 2 µg/mL (≈ 4.08 µM) | 8.17 | 6.49 | – | – | – | – | – | – |
| CCOc1cc(Cc2cnc(N)nc2N)cc(OS(=O)(=O)C2CC2)c1-c1ccc(O)cc1 [Example 15-e, Cylopropanesulphonic acid 4-(2,4-diamino-pyrimidin-5-ylmethyl)-6-ethoxy-4′-hydroxn-biphenyl-2-yl ester] | 1 µg/mL (≈ 2.19 µM) | 8 µg/mL (≈ 17.5 µM) | 7.92 | 7.03 | – | – | – | – | – | – |
| CCOc1cc(Cc2cnc(N)nc2N)cc(OCC2CC2)c1-c1cccc(N)c1 [Example 7a, 5-(3′-Amino-6-cyclopropylmethoxy-2-ethoxy-biphenyl-4-ylmethyl)-pirimidine-2,4-diamine] | – | – | – | – | 1 µg/mL (≈ 2.47 µM) | 8 µg/mL (≈ 19.7 µM) | 8.68 | 6.29 | – | – |
| CCOc1cc(Cc2cnc(N)nc2N)cc(OCC)c1-c1cccc(C=O)c1 [Example 04-u, 4′-(2,4-Diamino-pyrimidin-5-ylmethyl)-2′,6′-diethoxy-biphenyl-3-carbaldehyde] | 4 µg/mL (≈ 10.2 µM) | 8 µg/mL (≈ 20.4 µM) | 7.19 | 5.72 | – | – | – | – | – | – |
| CCOc1cc(Cc2cnc(N)nc2N)cc(OS(=O)(=O)N2CCOCC2)c1-c1ccc(NC)cc1 [Example 26c, Morpholine-4-sulphonic acid 4-(2,4-diamino-pyrimidin-5-ylmethyl)-6-ethoxy-4′-methylamino-biphenyl-2-yl ester] | – | – | – | 7.25 | – | – | 8.49 | – | 0.5 µg/mL (≈ 0.972 µM) | 1 µg/mL (≈ 1.94 µM) |
